Reference: PubChem BioAssay (NCI)
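Briefly, cells in 96-well plates were exposed to five compound concentrations for 48 h, and endpoints were estimated by linear interpolation. TGI: concentration producing complete growth inhibition.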

Experiments:
Assay in all cases: inhibition of tumour cell growth, NCI panel, 48 h
CAKI-1 renal = test system: CAKI-1 renal
U251 CNS = test system: U251 CNS
SNB-19 CNS = test system: SNB-19 CNS
HOP-92 NSCLC = test system: HOP-92 NSCLC
MCF7 breast = test system: MCF7 breast
HT29 colon = test system: HT29 colon
OVCAR-8 ovarian = test system: OVCAR-8 ovarian
HCT-15 colon = test system: HCT-15 colon
HCT-116 colon = test system: HCT-116 colon
HCC-2998 colon = test system: HCC-2998 colon
UO-31 renal = test system: UO-31 renal
K-562 leukemia = test system: K-562 leukemia
BT-549 breast = test system: BT-549 breast
SN12C renal = test system: SN12C renal
A498 renal = test system: A498 renal
TK-10 renal = test system: TK-10 renal
SF-539 CNS = test system: SF-539 CNS
SNB-75 CNS = test system: SNB-75 CNS
SK-MEL-28 melanoma = test system: SK-MEL-28 melanoma
SR leukemia = test system: SR leukemia

| Structure (SMILES) | TGI (CAKI-1 renal) [µM] | TGI (U251 CNS) [µM] | TGI (SNB-19 CNS) [µM] | TGI (HOP-92 NSCLC) [µM] | TGI (MCF7 breast) [µM] | TGI (HT29 colon) [µM] | TGI (OVCAR-8 ovarian) [µM] | TGI (HCT-15 colon) [µM] | TGI (HCT-116 colon) [µM] | TGI (HCC-2998 colon) [µM] | TGI (UO-31 renal) [µM] | TGI (K-562 leukemia) [µM] | TGI (BT-549 breast) [µM] | TGI (SN12C renal) [µM] | TGI (A498 renal) [µM] | TGI (TK-10 renal) [µM] | TGI (SF-539 CNS) [µM] | TGI (SNB-75 CNS) [µM] | TGI (SK-MEL-28 melanoma) [µM] | TGI (SR leukemia) [µM] |
| --- | --- | --- | --- | --- | --- | --- | --- | --- | --- | --- | --- | --- | --- | --- | --- | --- | --- | --- | --- | --- |
| OCC1OC(n2cnc3c(Cl)nc(Nc4ccccc4)nc32)CC1O (configuration not stated) | 3.4 | > 100 | > 100 | 6.87 | > 100 | > 100 | > 100 | 60.8 | > 100 | 44.7 | 33.7 | > 100 | > 100 | > 100 | > 100 | > 100 | > 100 | > 100 |  |  |
| Nn1c(CCCCCCCCc2nnc(COc3ccc(Cl)cc3)n2N)nnc1COc1ccc(Cl)cc1 | 35.6 | > 100 | > 100 | > 100 | > 100 | > 100 |  | > 100 | > 100 | > 100 | > 100 | > 100 | > 100 | > 100 | > 100 | > 100 |  | > 100 | > 100 |  |
| CC(=O)O[C@H]1C#C/C=C\C#CC[C@@H]2C(=O)N[C@@H]12 | > 40.1 | > 100 | > 100 | 98.9 | > 100 | > 100 | 73.1 | > 82 | > 100 | > 100 | > 62.8 | > 100 | > 86.5 | > 80.4 | 98.9 | > 100 | 5.39 | > 90.7 | > 100 |  |
| NP(=O)(OCC1=CC(=O)c2ccccc2C1=O)N(CCBr)CCBr (configuration not stated) | 8.1 | 28.7 | > 55.1 | 31.5 | > 40.9 | 34.9 | 37.2 | 20.1 | > 45.1 | 34.3 | 24.1 | > 100 |  | 33.9 | 39.3 | 33.1 | 18.7 | > 35.8 | 11.7 | 9.75 |
| Cc1ccc2c(c1)[nH]c1cc(C(F)(F)F)ccc1[p+]2=O (configuration not stated) | > 100 | > 100 | 76.7 | 54.5 | > 100 | > 100 | > 100 | > 100 | > 100 | > 100 |  | 66.4 |  | > 100 | 74.5 | > 100 | > 100 | 55.9 | > 100 | > 100 |
| O=C(O)c1ccc(S(=O)(=O)c2ccccc2[N+](=O)[O-])cc1 | > 10 | > 10 | > 10 |  | > 10 | > 10 | > 10 | > 10 | > 10 | > 10 |  | > 10 | > 10 | > 10 | > 10 | > 10 | > 10 | > 10 | > 10 | > 10 |
| C/C=C/C(O)P1(=O)N(Cc2ccccc2)[C@@H]2CCCC[C@H]2N1Cc1ccccc1 (some centres not stated) | > 25 | > 25 | > 25 |  | > 25 | > 25 | > 25 | > 25 | > 25 | > 25 | > 25 | > 25 | > 25 | > 25 |  | > 25 | > 25 | > 25 | > 25 | > 25 |
| c1cc2nnnn2nc1N1CCCC1 | > 100 | > 100 | > 100 | > 100 | > 100 | > 100 | > 100 | > 100 | > 100 | > 100 | > 100 | > 100 |  | > 100 | > 100 | > 100 | > 100 |  | > 100 | > 100 |
| O=c1[nH]nc(Cc2ccc([N+](=O)[O-])cc2)n1CCO | > 100 | > 100 | > 100 | > 100 | > 100 | > 100 | > 100 | > 100 | > 100 | > 100 | > 100 | > 100 | > 100 | > 100 | > 100 | > 100 | > 100 |  | > 100 |  |
| N#Cc1c(-c2ccccc2)nc(-c2ccccc2)sc1=S | > 100 | > 100 | > 100 | > 100 | > 100 | > 100 | > 100 | > 100 | > 100 | > 100 | > 100 | > 100 | > 100 | > 100 | > 100 | > 100 | > 100 | > 100 | > 100 |  |
